Assay results reported in PubChem BioAssay AID1963850 (Molecular Pharmacology Branch, DTP, NCI, 2024).

Tested on: 192522-019-R-J2-PDC complex tumor spheroid viability
Test: Anticancer human tumor 192522-019-R-J2-PDC patient-derived colon adenocarcinoma cell line growth inhibition [POLQ]
Details: for IC50: curve of first compound; for viability, T/C: stronger effect = lower value
Summary of the method: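 Complex spheroid viability model combining PDC tumour cells with endothelial (HUVEC) and MSC stromal cells. Novobiocin, ART-558 or RP6685 were tested singly and in combination with standard and investigational anticancer drugs. Each was titrated in half-log steps from near clinical Cmax, or from 10 microM where Cmax was unknown.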

[1] = second compound 0.0316 µM, first compound 0.0316 µM
[2] = second compound 0.0316 µM, first compound 0.1 µM
[3] = second compound 0.0316 µM, first compound 0.316 µM
[4] = second compound 0.0316 µM, first compound 1 µM
[5] = second compound 0.0316 µM, first compound 3.16 µM
[6] = second compound 0.0316 µM, first compound 10 µM
[7] = second compound 0.1 µM, first compound 0.0316 µM
[8] = second compound 0.1 µM, first compound 0.1 µM
[9] = second compound 0.1 µM, first compound 0.316 µM
[10] = second compound 0.1 µM, first compound 1 µM
[11] = second compound 0.1 µM, first compound 3.16 µM
[12] = second compound 0.1 µM, first compound 10 µM
[13] = second compound 0.316 µM, first compound 0.0316 µM
[14] = second compound 0.316 µM, first compound 0.1 µM
[15] = second compound 0.316 µM, first compound 0.316 µM
[16] = second compound 0.316 µM, first compound 1 µM
[17] = second compound 0.316 µM, first compound 3.16 µM
[18] = second compound 0.316 µM, first compound 10 µM
[19] = second compound 1 µM, first compound 0.0316 µM
[20] = second compound 1 µM, first compound 0.1 µM
[21] = second compound 1 µM, first compound 0.316 µM
[22] = second compound 1 µM, first compound 1 µM
[23] = second compound 1 µM, first compound 3.16 µM
[24] = second compound 1 µM, first compound 10 µM
[25] = second compound 3.16 µM, first compound 0.0316 µM
[26] = second compound 3.16 µM, first compound 0.1 µM
[27] = second compound 3.16 µM, first compound 0.316 µM
[28] = second compound 3.16 µM, first compound 1 µM
[29] = second compound 3.16 µM, first compound 3.16 µM
[30] = second compound 3.16 µM, first compound 10 µM
[31] = second compound 10 µM, first compound 0.0316 µM
[32] = second compound 10 µM, first compound 0.1 µM
[33] = second compound 10 µM, first compound 0.316 µM
[34] = second compound 10 µM, first compound 1 µM
[35] = second compound 10 µM, first compound 3.16 µM
[36] = second compound 10 µM, first compound 10 µM
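Further: spheroids exposed to drugs for seven days before reading.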
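Wherever viability, T/C is given: 100% = DMSO vehicle control viability in luminescence.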

With `CC(=O)O[C@H]1C(=O)[C@@]2(C)[C@H]([C@H](OC(=O)c3ccccc3)[C@]3(O)C[C@H](OC(=O)[C@H](O)[C@@H](NC(=O)c4ccccc4)c4ccccc4)C(C)=C1C3(C)C)[C@]1(OC(C)=O)CO[C@@H]1C[C@@H]2O` + Cc1cccc(N(C)C(=O)C2C(O)CCN2c2nc(C)cc(C(F)(F)F)c2C#N)c1 the IC50 (second compound 0.0316 µM) was > 3 µM, the IC50 (second compound 0.1 µM) was > 3 µM and the IC50 (second compound 0.316 µM) was > 3 µM. The IC50 (second compound 1 µM) was > 3 µM, the IC50 (second compound 3.16 µM) was > 3 µM and the IC50 (second compound 10 µM) was > 3 µM. It also gave a viability, T/C (second compound 0.0316 µM, first compound 0.00949 µM) of 90%, a viability, T/C (second compound 0.0316 µM, first compound 0.03 µM) of 69.4% and a viability, T/C (second compound 0.0316 µM, first compound 0.0949 µM) of 52.2%. For the same compound, the viability, T/C (second compound 0.0316 µM, first compound 0.3 µM) was 59%, the viability, T/C (second compound 0.0316 µM, first compound 0.949 µM) was 56.8% and the viability, T/C (second compound 0.0316 µM, first compound 3 µM) was 54.7%. For the same compound, the viability, T/C (second compound 0.1 µM, first compound 0.00949 µM) was 98.5%, the viability, T/C (second compound 0.1 µM, first compound 0.03 µM) was 74.3% and the viability, T/C (second compound 0.1 µM, first compound 0.0949 µM) was 53.1%. The viability, T/C (second compound 0.1 µM, first compound 0.3 µM) was 64.4%, the viability, T/C (second compound 0.1 µM, first compound 0.949 µM) was 60.4% and the viability, T/C (second compound 0.1 µM, first compound 3 µM) was 57.9%. The viability, T/C (second compound 0.316 µM, first compound 0.00949 µM) was 92.1%, the viability, T/C (second compound 0.316 µM, first compound 0.03 µM) was 79.5% and the viability, T/C (second compound 0.316 µM, first compound 0.0949 µM) was 61.8%. The viability, T/C (second compound 0.316 µM, first compound 0.3 µM) was 58.4%, the viability, T/C (second compound 0.316 µM, first compound 0.949 µM) was 64.3% and the viability, T/C (second compound 0.316 µM, first compound 3 µM) was 62.4%. The viability, T/C (second compound 1 µM, first compound 0.00949 µM) was 102%, the viability, T/C (second compound 1 µM, first compound 0.03 µM) was 84% and the viability, T/C (second compound 1 µM, first compound 0.0949 µM) was 61.1%. For the same compound, the viability, T/C (second compound 1 µM, first compound 0.3 µM) was 60.3%, the viability, T/C (second compound 1 µM, first compound 0.949 µM) was 54.3% and the viability, T/C (second compound 1 µM, first compound 3 µM) was 55.5%. The viability, T/C (second compound 3.16 µM, first compound 0.00949 µM) was 105%, the viability, T/C (second compound 3.16 µM, first compound 0.03 µM) was 79.8% and the viability, T/C (second compound 3.16 µM, first compound 0.0949 µM) was 61.8%. For the same compound, the viability, T/C (second compound 3.16 µM, first compound 0.3 µM) was 59.5%, the viability, T/C (second compound 3.16 µM, first compound 0.949 µM) was 65.8% and the viability, T/C (second compound 3.16 µM, first compound 3 µM) was 57.4%. For the same compound, the viability, T/C (second compound 10 µM, first compound 0.00949 µM) was 94%, the viability, T/C (second compound 10 µM, first compound 0.03 µM) was 67.8% and the viability, T/C (second compound 10 µM, first compound 0.0949 µM) was 58.3%. It also gave a viability, T/C (second compound 10 µM, first compound 0.3 µM) of 58.9%, a viability, T/C (second compound 10 µM, first compound 0.949 µM) of 56.8% and a viability, T/C (second compound 10 µM, first compound 3 µM) of 63.3%.

For `CC(C)n1c(=O)n(C)c2cnc3cc(F)c(-c4ccc(OCCCN5CCCCC5)nc4)cc3c21` + COC1C(OC(N)=O)C(O)C(Oc2ccc3c(O)c(NC(=O)c4ccc(O)c(CC=C(C)C)c4)c(=O)oc3c2C)OC1(C)C, the IC50 (second compound 0.0316 µM) was > 10 µM, the IC50 (second compound 0.1 µM) was > 10 µM and the IC50 (second compound 0.316 µM) was > 10 µM. For the same compound, the IC50 (second compound 1 µM) was > 10 µM, the IC50 (second compound 3.16 µM) was > 10 µM and the IC50 (second compound 10 µM) was > 10 µM. The viability, T/C [1] was 107%, the viability, T/C [2] was 93.2% and the viability, T/C [3] was 115%. The viability, T/C [4] was 112%, the viability, T/C [5] was 112% and the viability, T/C [6] was 93.9%. The viability, T/C [7] was 97.5%, the viability, T/C [8] was 100% and the viability, T/C [9] was 108%. The viability, T/C [10] was 108%, the viability, T/C [11] was 104% and the viability, T/C [12] was 95.2%. The viability, T/C [13] was 97.8%, the viability, T/C [14] was 95.5% and the viability, T/C [15] was 117%. The viability, T/C [16] was 115%, the viability, T/C [17] was 120% and the viability, T/C [18] was 106%. The viability, T/C [19] was 96.8%, the viability, T/C [20] was 102% and the viability, T/C [21] was 104%. It also gave a viability, T/C [22] of 110%, a viability, T/C [23] of 94.9% and a viability, T/C [24] of 104%. For the same compound, the viability, T/C [25] was 98.1%, the viability, T/C [26] was 107% and the viability, T/C [27] was 114%. It also gave a viability, T/C [28] of 108%, a viability, T/C [29] of 122% and a viability, T/C [30] of 102%. It also gave a viability, T/C [31] of 118%, a viability, T/C [32] of 112% and a viability, T/C [33] of 114%. It also gave a viability, T/C [34] of 120%, a viability, T/C [35] of 110% and a viability, T/C [36] of 107%.

In the case of `O=c1[nH]cc(F)c(=O)[nH]1` + COC1C(OC(N)=O)C(O)C(Oc2ccc3c(O)c(NC(=O)c4ccc(O)c(CC=C(C)C)c4)c(=O)oc3c2C)OC1(C)C, the IC50 (second compound 0.0316 µM) is reported as > 10 µM, the IC50 (second compound 0.1 µM) is reported as > 10 µM and the IC50 (second compound 0.316 µM) is reported as > 10 µM. The IC50 (second compound 1 µM) was > 10 µM, the IC50 (second compound 3.16 µM) was > 10 µM and the IC50 (second compound 10 µM) was > 10 µM. The viability, T/C [1] was 99.2%, the viability, T/C [2] was 75.7% and the viability, T/C [3] was 78.8%. It also gave a viability, T/C [4] of 72.7%, a viability, T/C [5] of 73.8% and a viability, T/C [6] of 64.2%. The viability, T/C [7] was 91.8%, the viability, T/C [8] was 80.3% and the viability, T/C [9] was 77.4%. It also gave a viability, T/C [10] of 71.1%, a viability, T/C [11] of 71% and a viability, T/C [12] of 75.8%. It also gave a viability, T/C [13] of 91%, a viability, T/C [14] of 82% and a viability, T/C [15] of 84.8%. For the same compound, the viability, T/C [16] was 73.1%, the viability, T/C [17] was 71.1% and the viability, T/C [18] was 68.7%. The viability, T/C [19] was 89.6%, the viability, T/C [20] was 78.7% and the viability, T/C [21] was 74.7%. The viability, T/C [22] was 77.1%, the viability, T/C [23] was 70.7% and the viability, T/C [24] was 70.7%. It also gave a viability, T/C [25] of 92.5%, a viability, T/C [26] of 86.5% and a viability, T/C [27] of 78.1%. It also gave a viability, T/C [28] of 72.9%, a viability, T/C [29] of 74.8% and a viability, T/C [30] of 73.3%. The viability, T/C [31] was 92.8%, the viability, T/C [32] was 76.3% and the viability, T/C [33] was 82.7%. The viability, T/C [34] was 73.1%, the viability, T/C [35] was 77.6% and the viability, T/C [36] was 83.1%.
